Several values for one entry are separate records, joined by “and”; a condition that tells them apart may be missing. Identical values can stand only once. Toxic doses and inconclusive results are not listed.

The subject of the test is P388 leukemia ip, CD2F1 mice, survival T/C. The experiment in a line: NCI In Vivo Anticancer Drug Screen. Data for tumor model P388 Leukemia (intraperitoneal) in CD2F1 (CDF1) mice. The conditions noted are these: endpoint: median survival time, higher = longer survival. The gist of the method:
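Mice carrying the transplanted tumor received test compound or vehicle. Survival was recorded in each group, and the value is the treated-group measurement divided by that of the vehicle-treated control group.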

[1] abbreviates: dose: 50.0 mg/kg/injection, schedule: Q01DX005 (ip), vehicle: saline with Tween-80.
[2] abbreviates: dose: 100.0 mg/kg/injection, schedule: Q01DX005 (ip), vehicle: saline with Tween-80.
Where [3] appears, read: dose: 200.0 mg/kg/injection, schedule: Q01DX005 (ip), vehicle: saline with Tween-80.
The mark [4] stands for this setting: dose: 50.0 mg/kg/injection, schedule: Q01DX005 (ip), vehicle: Klucel (hydroxypropylcellulose) (HPC).
Setting [5] is: dose: 100.0 mg/kg/injection, schedule: Q01DX005 (ip), vehicle: Klucel (hydroxypropylcellulose) (HPC).
Where [6] appears, read: dose: 50.0 mg/kg/injection, schedule: Q01DX009 (ip), vehicle: saline.
Setting [7] is: dose: 100.0 mg/kg/injection, schedule: Q01DX009 (ip), vehicle: saline.
Where [8] appears, read: dose: 200.0 mg/kg/injection, schedule: Q01DX009 (ip), vehicle: saline.
[9] abbreviates: dose: 400.0 mg/kg/injection, schedule: Q01DX009 (ip), vehicle: saline.
Where [10] appears, read: dose: 60.0 mg/kg/injection, schedule: Q01DX005 (ip), vehicle: saline with Tween-80.
The mark [11] stands for this setting: dose: 120.0 mg/kg/injection, schedule: Q01DX005 (ip), vehicle: saline with Tween-80.
The mark [12] stands for this setting: dose: 240.0 mg/kg/injection, schedule: Q01DX005 (ip), vehicle: saline with Tween-80.

With `COC(=O)/C=C\C1(CC(C)C)N=C(c2ccccc2)OC1=O` (stereo unspecified), the T/C runs as follows: under setting [1], 104 % of control; under setting [2], 95 % of control; under setting [3], 104 % of control.

Take `N/N=C(\N)c1nn(C2OC(CO)C(O)C2O)c2ncnc(N)c12` (stereo unspecified): the T/C was 104 % of control (dose: 40.0 mg/kg/injection, schedule: Q01DX005 (ip), vehicle: saline with Tween-80); 104 % of control (dose: 80.0 mg/kg/injection, schedule: Q01DX005 (ip), vehicle: saline with Tween-80); 101 % of control (dose: 160.0 mg/kg/injection, schedule: Q01DX005 (ip), vehicle: saline with Tween-80); 104 % of control (dose: 320.0 mg/kg/injection, schedule: Q01DX005 (ip), vehicle: saline with Tween-80).

For `CC(C)CCCC(C)C1CCC2C3CCC4CCC=CC4(C)C3CCC12C` (stereo unspecified), the T/C was 93 % of control (dose: 30.0 mg/kg/injection, schedule: Q01DX005 (ip), vehicle: Klucel (hydroxypropylcellulose) (HPC)); 90 % of control (dose: 60.0 mg/kg/injection, schedule: Q01DX005 (ip), vehicle: Klucel (hydroxypropylcellulose) (HPC)); 90 % of control (dose: 120.0 mg/kg/injection, schedule: Q01DX005 (ip), vehicle: Klucel (hydroxypropylcellulose) (HPC)); 91 % of control (dose: 240.0 mg/kg/injection, schedule: Q01DX005 (ip), vehicle: Klucel (hydroxypropylcellulose) (HPC)).

Turning to `CC(CCC(=O)O)(c1ccc(OC(=O)Nc2ccccc2Cl)cc1)c1ccc(OC(=O)Nc2ccccc2Cl)cc1`, the T/C by setting is: under setting [1], 118 % of control; under setting [2], 102 % of control; under setting [3], 109 % of control.

Consider `COc1ccc(-c2oc3cc(OC)c(OC)c(OC)c3c(=O)c2O)cc1O`, for which the T/C (dose: 25.0 mg/kg/injection, schedule: Q04DX003 (ip), vehicle: saline with Tween-80) was 87 % of control; the T/C (dose: 50.0 mg/kg/injection, schedule: Q04DX003 (ip), vehicle: saline with Tween-80) was 105 % of control; the T/C (dose: 100.0 mg/kg/injection, schedule: Q04DX003 (ip), vehicle: saline with Tween-80) is 97 % of control; the T/C (dose: 200.0 mg/kg/injection, schedule: Q04DX003 (ip), vehicle: saline with Tween-80) is 99 % of control.

In the case of `CC1CCC(C(=O)C(Cl)C(Cl)C2CCCCC2)CC1` (stereo unspecified), the T/C under setting [4] is 92 % of control and the T/C under setting [5] is 92 % of control.

Regarding `O=C(Nc1ccccc1)Sc1nnc2c3ccccc3c3ccccc3c2n1`, the T/C is 100 % of control (dose: 50.0 mg/kg/injection, schedule: Q01DX009 (ip), vehicle: saline with Tween-80); 101 % of control (dose: 100.0 mg/kg/injection, schedule: Q01DX009 (ip), vehicle: saline with Tween-80); 99 % of control (dose: 200.0 mg/kg/injection, schedule: Q01DX009 (ip), vehicle: saline with Tween-80).

Take `COC(=O)Cc1cccc2c(=O)cc(-c3cccs3)oc12`: the T/C is 90 % of control (dose: 25.0 mg/kg/injection, schedule: Q01DX009 (ip), vehicle: saline); 97 % of control (dose: 25.0 mg/kg/injection, schedule: Q01DX009 (ip), vehicle: suspension in saline); 105 % of control and 92 % of control under setting [6]; 94 % of control (dose: 50.0 mg/kg/injection, schedule: Q01DX009 (ip), vehicle: suspension in saline); 117 % of control and 97 % of control under setting [7]; 94 % of control (dose: 100.0 mg/kg/injection, schedule: Q01DX009 (ip), vehicle: suspension in saline). Besides, the T/C under setting [8] is 108 % of control and the T/C (dose: 200.0 mg/kg/injection, schedule: Q01DX009 (ip), vehicle: suspension in saline) is 95 % of control.

As for `CC1=NNC(C)(C)C1`, the T/C runs as follows: under setting [7], 105 % of control; under setting [8], 105 % of control; under setting [9], 110 % of control.

For `Nc1ccn(C2CC(N)C(CO)O2)c(=O)n1` (stereo unspecified), the T/C runs as follows: (dose: 12.5 mg/kg/injection, schedule: Q01DX005 (ip), vehicle: water) 120 % of control; (dose: 25.0 mg/kg/injection, schedule: Q01DX005 (ip), vehicle: water) 118 % of control and 123 % of control; (dose: 200.0 mg/kg/injection, schedule: Q01DX005 (ip), vehicle: water) 153 % of control and 154 % of control.

With `CC(=O)OCC1OC2OC(C)(C)OC2C1O` (stereo unspecified), the T/C is 96 % of control (dose: 50.0 mg/kg/injection, schedule: Q01DX005 (ip), vehicle: saline); 100 % of control (dose: 100.0 mg/kg/injection, schedule: Q01DX005 (ip), vehicle: saline); 105 % of control (dose: 200.0 mg/kg/injection, schedule: Q01DX005 (ip), vehicle: saline).

On to `O=C(Nc1ccccc1)N1CCOCC1`, for which the T/C was 106 % of control under setting [10], 103 % of control under setting [11] and 95 % of control under setting [12].

Regarding `C=CCNC(=O)/C(C)=C(\C)c1ccccc1`, the T/C (dose: 50.0 mg/kg/injection, schedule: Q04DX002 (ip), vehicle: Klucel (hydroxypropylcellulose) (HPC)) was 102 % of control; the T/C (dose: 100.0 mg/kg/injection, schedule: Q04DX002 (ip), vehicle: Klucel (hydroxypropylcellulose) (HPC)) is 102 % of control; the T/C (dose: 200.0 mg/kg/injection, schedule: Q04DX002 (ip), vehicle: Klucel (hydroxypropylcellulose) (HPC)) is 103 % of control.

With `CCC1(CC)C(=O)N(C(C)=O)C2(C)C(=O)NC(=O)N2C1=O` (stereo unspecified), the T/C (dose: 100.0 mg/kg/injection, schedule: Q01DX001 (ip), vehicle: saline) is 100 % of control; the T/C (dose: 200.0 mg/kg/injection, schedule: Q01DX001 (ip), vehicle: saline) is 100 % of control; the T/C (dose: 400.0 mg/kg/injection, schedule: Q01DX001 (ip), vehicle: saline) is 101 % of control.

For `O=C(O)c1cscn1`, the T/C reads like this: (dose: 60.0 mg/kg/injection, schedule: Q01DX005 (ip), vehicle: saline) 100 % of control; (dose: 120.0 mg/kg/injection, schedule: Q01DX005 (ip), vehicle: saline) 97 % of control; (dose: 240.0 mg/kg/injection, schedule: Q01DX005 (ip), vehicle: saline) 113 % of control.

Take `N#CC(=NCCO)C1=C(O)c2ccccc2C1=O`: the T/C by setting is: under setting [10], 107 % of control; under setting [11], 97 % of control; under setting [12], 95 % of control.

For `Cc1nn(-c2ccccc2)c2c1C(c1ccc(Cl)cc1)C(C#N)=C(N)O2` (stereo unspecified), the T/C is 94 % of control (dose: 50.0 mg/kg/injection, schedule: Q01DX009 (ip), vehicle: Klucel (hydroxypropylcellulose) (HPC)) and 96 % of control (dose: 100.0 mg/kg/injection, schedule: Q01DX009 (ip), vehicle: Klucel (hydroxypropylcellulose) (HPC)).

In the case of `OCc1ccc(Cl)cc1O`, the T/C (dose: 12.5 mg/kg/injection, schedule: Q01DX009 (ip), vehicle: distilled water + Tween-80) is 100 % of control; the T/C (dose: 25.0 mg/kg/injection, schedule: Q01DX009 (ip), vehicle: distilled water + Tween-80) was 100 % of control; the T/C (dose: 50.0 mg/kg/injection, schedule: Q01DX009 (ip), vehicle: distilled water + Tween-80) is 105 % of control; the T/C (dose: 100.0 mg/kg/injection, schedule: Q01DX009 (ip), vehicle: distilled water + Tween-80) is 107 % of control; the T/C (dose: 200.0 mg/kg/injection, schedule: Q01DX009 (ip), vehicle: distilled water + Tween-80) was 116 % of control.

As to `CCOC(=O)/N=C1\SC2(CC(C)=C(C)CS2=O)C(O)=C1C(=O)OCC` (stereo unspecified), the T/C is 101 % of control under setting [10], 100 % of control under setting [11] and 101 % of control under setting [12].

`Cc1cc(NCCCCCCCNc2cc(C)nc3cc(N)ccc23)c2ccc(N)cc2n1`: the T/C was 165 % of control (dose: 1.56 mg/kg/injection, schedule: Q01DX009 (ip), vehicle: other); 158 % of control (dose: 3.13 mg/kg/injection, schedule: Q01DX009 (ip), vehicle: other); 186 % of control and 196 % of control (dose: 6.25 mg/kg/injection, schedule: Q01DX009 (ip), vehicle: other); 157 % of control and 186 % of control (dose: 12.5 mg/kg/injection, schedule: Q01DX009 (ip), vehicle: other).

Take `CCOc1cc2c(cc1C(C)c1ccc(OCc3ccccc3)c(OC)c1)OCO2` (stereo unspecified): the T/C is 97 % of control under setting [4]; 97 % of control under setting [5]; 92 % of control (dose: 200.0 mg/kg/injection, schedule: Q01DX005 (ip), vehicle: Klucel (hydroxypropylcellulose) (HPC)).

For `Oc1cccnc1CN1CCOCC1`, the T/C under setting [6] was 101 % of control, the T/C under setting [7] was 93 % of control, the T/C under setting [8] is 101 % of control and the T/C under setting [9] is 101 % of control.

Source of the values: PubChem BioAssay AID330 (DTP/NCI, 2004).
